# Measured values taken from ChEMBL document CHEMBL1201862, “PubChem BioAssay data set” (2004).
#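 Briefly, cells in 96-well plates were exposed to five compound concentrations for 48 h, and endpoints were estimated by linear interpolation. GI50 is the concentration that inhibits growth by half.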 The source made the active and inactive calls. No stated cut-off is given here; in the data, active = GI50 up to about 1.1 µM and inactive = higher.
# Legend:
# Experiment in all cases: DTP human tumour cell line panel, 48 h
# [1] = test system: 786-0
# [2] = test system: A498
# [3] = test system: A549
# [4] = test system: ACHN
# [5] = test system: CAKI-1
# [6] = test system: CCRF-CEM
# [7] = test system: COLO 205
# [8] = test system: DLD-1
# [9] = test system: DMS-273
# [10] = test system: EKVX
# [11] = test system: HCC 2998
# [12] = test system: HCT-116
# [13] = test system: HCT-15
# [14] = test system: HL-60
# [15] = test system: HOP-18
# [16] = test system: HOP-62
# [17] = test system: HOP-92
# [18] = test system: HT-29
# [19] = test system: IGROV-1
# [20] = test system: K562
# [21] = test system: KM-20L2
# [22] = test system: KM12
# [23] = test system: LOX IMVI
# [24] = test system: LXFL 529
# [25] = test system: M14
# [26] = test system: M19-MEL
# [27] = test system: MOLT-4
# [28] = test system: Malme-3M
# [29] = test system: NCI-H226
# [30] = test system: NCI-H23
# [31] = test system: NCI-H460
# [32] = test system: NCI-H522
# [33] = test system: OVCAR-3
# [34] = test system: OVCAR-4
# [35] = test system: OVCAR-5
# [36] = test system: OVCAR-8
# [37] = test system: RPMI-8226
# [38] = test system: RXF 393
# [39] = test system: RXF 631
# [40] = test system: SF-268
# [41] = test system: SF-295
# [42] = test system: SF-539
# [43] = test system: SK-MEL-28
# [44] = test system: SK-MEL-2
# [45] = test system: SK-MEL-5
# [46] = test system: SN12C
# [47] = test system: SNB-19
# [48] = test system: SNB-75
# [49] = test system: SNB-78
# [50] = test system: SR
# [51] = test system: SW-620
# [52] = test system: TK-10
# [53] = test system: U-251
# [54] = test system: UACC-257
# [55] = test system: UACC-62
# [56] = test system: UO-31
# [57] = test system: BT-549
# [58] = test system: DMS-114
# [59] = test system: DU-145
# [60] = test system: Hs-578T
# [61] = test system: MCF7
# [62] = test system: MDA-MB-231
# [63] = test system: MDA-MB-435
# [64] = test system: MDA-N
# [65] = test system: NCI/ADR-RES
# [66] = test system: PC-3
# [67] = test system: SK-OV-3
# [68] = test system: T47D
smiles,measurement,setting,value
C=CCC1(CN(C)C)CC/C(=C\c2ccc3c(c2)OCO3)C1=O (configuration not stated),GI50,[1],44.8 µM (inactive)
same,GI50,[2],33.7 µM (inactive)
same,GI50,[3],74.1 µM (inactive)
same,GI50,[4],31.6 µM (inactive)
same,GI50,[5],68.5 µM (inactive)
same,GI50,[6],29.2 µM (inactive)
same,GI50,[7],23.7 µM (inactive)
same,GI50,[8],27.7 µM (inactive)
same,GI50,[9],47.6 µM (inactive)
same,GI50,[10],18.1 µM (inactive)
same,GI50,[11],37.3 µM (inactive)
same,GI50,[12],43.6 µM (inactive)
same,GI50,[13],39.4 µM
same,GI50,[14],4.32 µM (inactive)
same,GI50,[15],> 100 µM (inactive)
same,GI50,[16],> 100 µM (inactive)
same,GI50,[17],89.9 µM (inactive)
same,GI50,[18],36 µM (inactive)
same,GI50,[19],60.5 µM (inactive)
same,GI50,[20],32.7 µM (inactive)
same,GI50,[21],28.9 µM (inactive)
same,GI50,[22],42.3 µM (inactive)
same,GI50,[23],97.1 µM (inactive)
same,GI50,[24],34.5 µM (inactive)
same,GI50,[25],56.9 µM (inactive)
same,GI50,[26],39.6 µM (inactive)
same,GI50,[27],27.3 µM (inactive)
same,GI50,[28],> 100 µM (inactive)
same,GI50,[29],> 100 µM (inactive)
same,GI50,[30],65.8 µM (inactive)
same,GI50,[31],50.4 µM (inactive)
same,GI50,[32],17.9 µM (inactive)
same,GI50,[33],65.3 µM (inactive)
same,GI50,[34],67.5 µM (inactive)
same,GI50,[35],> 100 µM (inactive)
same,GI50,[36],48.4 µM (inactive)
same,GI50,[37],24.3 µM (inactive)
same,GI50,[38],59.8 µM (inactive)
same,GI50,[39],25.4 µM (inactive)
same,GI50,[40],91 µM (inactive)
same,GI50,[41],> 100 µM (inactive)
same,GI50,[42],88.9 µM (inactive)
same,GI50,[43],> 100 µM (inactive)
same,GI50,[44],> 100 µM (inactive)
same,GI50,[45],22.7 µM (inactive)
same,GI50,[46],> 100 µM (inactive)
same,GI50,[47],> 100 µM (inactive)
same,GI50,[48],> 100 µM (inactive)
same,GI50,[49],> 100 µM (inactive)
same,GI50,[50],41 µM (inactive)
same,GI50,[51],35.1 µM (inactive)
same,GI50,[52],> 100 µM (inactive)
same,GI50,[53],52.1 µM (inactive)
same,GI50,[54],40.7 µM (inactive)
same,GI50,[55],68.4 µM (inactive)
same,GI50,[56],45 µM (inactive)
C[C@H]1CCC2C(OC(=O)[C@@H]2CN(C)C)[C@]2(C)C(=O)C=CC12O (some centres not stated),GI50,[1],5.26 µM (inactive)
same,GI50,[2],14.2 µM (inactive)
same,GI50,[3],24.8 µM (inactive)
same,GI50,[4],2.17 µM (inactive)
same,GI50,[57],5.37 µM (inactive)
same,GI50,[5],7.06 µM (inactive)
same,GI50,[6],1.87 µM (inactive)
same,GI50,[7],4.74 µM (inactive)
same,GI50,[8],2.99 µM (inactive)
same,GI50,[58],2.93 µM (inactive)
same,GI50,[9],3.12 µM (inactive)
same,GI50,[59],10.8 µM (inactive)
same,GI50,[10],4.02 µM (inactive)
same,GI50,[11],5.2 µM (inactive)
same,GI50,[12],2.86 µM (inactive)
same,GI50,[14],1.65 µM (inactive)
same,GI50,[15],24.2 µM (inactive)
same,GI50,[16],23.9 µM (inactive)
same,GI50,[17],2.79 µM (inactive)
same,GI50,[18],4.09 µM (inactive)
same,GI50,[60],4.27 µM (inactive)
same,GI50,[19],15.8 µM (inactive)
same,GI50,[20],3.23 µM (inactive)
same,GI50,[21],2.17 µM (inactive)
same,GI50,[22],4.69 µM (inactive)
same,GI50,[23],4.59 µM (inactive)
same,GI50,[24],3.01 µM (inactive)
same,GI50,[25],4.06 µM (inactive)
same,GI50,[26],4.26 µM (inactive)
same,GI50,[61],7.5 µM (inactive)
same,GI50,[62],9.55 µM (inactive)
same,GI50,[63],4.47 µM (inactive)
same,GI50,[64],3.48 µM (inactive)
same,GI50,[27],2.82 µM (inactive)
same,GI50,[28],3.7 µM (inactive)
same,GI50,[29],7.01 µM (inactive)
same,GI50,[30],3.26 µM (inactive)
same,GI50,[31],12.5 µM (inactive)
same,GI50,[32],1.32 µM (inactive)
same,GI50,[65],2 µM (inactive)
same,GI50,[33],3.76 µM (inactive)
same,GI50,[34],5.62 µM (inactive)
same,GI50,[35],14.1 µM (inactive)
same,GI50,[36],1.57 µM (inactive)
same,GI50,[66],14.2 µM (inactive)
same,GI50,[37],2.67 µM (inactive)
same,GI50,[38],1.65 µM (inactive)
same,GI50,[39],1.31 µM (inactive)
same,GI50,[40],6.79 µM (inactive)
same,GI50,[41],13.2 µM (inactive)
same,GI50,[42],3.64 µM (inactive)
same,GI50,[43],2.43 µM (inactive)
same,GI50,[44],9.44 µM (inactive)
same,GI50,[45],7.16 µM (inactive)
same,GI50,[67],16.9 µM (inactive)
same,GI50,[46],4.09 µM (inactive)
same,GI50,[47],22.9 µM (inactive)
same,GI50,[48],4.6 µM (inactive)
same,GI50,[50],2.47 µM (inactive)
same,GI50,[51],3.24 µM (inactive)
same,GI50,[68],3.2 µM (inactive)
same,GI50,[52],6.68 µM (inactive)
same,GI50,[53],17.5 µM (inactive)
same,GI50,[54],4.86 µM (inactive)
same,GI50,[55],2.55 µM (inactive)
same,GI50,[56],10.9 µM (inactive)
